From US6869791B2, “Method for sterilizing transformed cells” (Sumitomo Chemical Company, Ltd., priority 2000, dated 2005)
Where two headings read alike, the source gives them in different places.

Assays:
[1] = system: esterase in culture broth of E. coli JM105/pYHNK 2 strain
Procedure: 0.02 g of N-benzylazetidin-2-carboxyilic acid ethyl ester, 1.0 ml t-butyl methyl ether and 3.5 ml of 100 mM monopotassium phosphate-dipotassium phosphate buffer (pH 7.0) were added in a 10 ml threaded test tube and kept at 35′ for 15 minutes. 200 μl of the esterase solution was put in the test tube to measure its esterase activity and shaken reciprocally (120 str/min) at 35° C. for 16 minutes. Then 400% 1 of the mixed solution was centrifuged (12000 rpm, 5 minutes) after 1 ml t-butyl methyl ether was added and stirred. 200 μl of the obtained aqueous phase was analyzed quantitatively (by absolute calibration curve method) with respect to N-benzylazetidin-2-carboxylic acid by high performance liquid chromatography after dissolved in 20 mM phosphate acid monopotassium water/acetonitrile=90/10 and filtered by a 0.2 μl filter.

[2] = system: E. coli JM105/pYHNK 2 strain; format: cell-based, Escherichia coli
[3] = system: E. coli JM105/pEAR5 strain; details: stirred 24 hours at 30° C.
Procedure: (§1) Number of viable cells was determined by the following method.
(§2) About 1 ml of a sample solution to be measured with the number of viable cells was diluted with physiological saline cooled to 4° C. 100 μl of the diluted solution was applied onto a LB-medium plate (L-Broth Ager (manufactured by BIO 101 Company, Ltd) containing ampicilline at a concentration of 100 μ/ml and kept at 37° C. for 1 to 2 days. Thereafter, number of the viable cells was calculated from the number of colonies grown thereon.

[4] = system: E. coli JM 105/pCC160S189Y363term strain; details: stirred 24 hours at 30° C.
Procedure: as §1, §2

[5] = system: esterase derived from Arthrobacter SC-6-98-28 in culture broth of E. coli JM105/pEAR5 strain; details: stirred 24 hours at 30° C.
Procedure: Measurement of the Esterase Activity in Example 13 and 14:
To 5 ml of a diluted solution of the culture broth or sterilized solution obtained by the pre sent method was added 1 g of 2,2-dichloro-3-(1-propenyl)cyclopropane-1-carboxylic acid methyl ester (1R/1S=50/50, trans/cis98/2) and the resulting mixture was stirred at 45° C. for 30 minutes while maintaining the pH at 10.0. A portion of the reaction solution was sampled, acidified with hydrochloric acid, and extracted with ethyl acetate. The extract solution was analyzed by gas-chromatography to measure the hydrolysis rate (Internal standard: methyl cinnamate, column: HR20M 0.53 φ, 30 m, 1 μ, ULBON). The esterase activity was calculated from the hydrolysis rate.

[6] = system: esterase derived from Chromobacterium SC-YM-1 (160S, 189Y mutant) in culture broth of E. coli JM 105/pCC160S189Y363term strain; details: stirred 24 hours at 30° C.
Procedure: Measurement of the enzyme activity was performed by using p-nitrophenyl acetate (pNPA) as a substrate. A sample enzyme solution was added to a 3.0 ml of 100 mM phosphate buffer solution (pH 7.5) containing the substrate at a concentration of 5 mM and the resulting mixture is maintained at 37° C. An amount of liberated p-nitrophenol was measured by the increase of absorbance at 405 nm.

[7] = Example 9: 40 ml culture broth + 10 ml acetone, stirred 24 hours at 30° C.
[8] = Example 10: 40 ml culture broth + 10 ml acetone, stirred 6 hours at 30° C.
[9] = Example 11: 40 ml culture broth + 10 ml acetone, stirred 48 hours at 30° C.
[10] = Example 12: 40 ml culture broth + 6.5 ml acetone, stirred 24 hours at 30° C.
[11] = Example 13: 45 g culture broth + 5 g ethanol
[12] = Example 14: 37.5 g culture broth + 12.5 g ethanol
[13] = Example 15: 45 g culture broth + 5 g ethanol
[14] = Example 16: 37.5 g culture broth + 12.5 g ethanol
[15] = Example 1: 40 ml culture broth + 10 ml ethanol, stirred 24 hours at 30° C.
[16] = Example 2: 40 ml culture broth + 10 ml ethanol, stirred 6 hours at 30° C.
[17] = Example 3: 40 ml culture broth + 10 ml ethanol, stirred 48 hours at 30° C.
[18] = Example 4: 42.5 ml culture broth + 7.5 ml ethanol, stirred 24 hours at 30° C.
[19] = Example 5: 40 ml culture broth + 10 ml methanol, stirred 24 hours at 30° C.
[20] = Example 6: 40 ml culture broth + 10 ml methanol, stirred 6 hours at 30° C.
[21] = Example 7: 40 ml culture broth + 10 ml methanol, stirred 48 hours at 30° C.
[22] = Example 8: 40 ml culture broth + 10 ml methanol, stirred 5 hours at 25° C.

CC(C)=O [acetone] was tested, and the “esterase activity of the mixed solution, relative to culture broth (1)” value [1, 7] was at least 95%, the “esterase activity of the mixed solution, relative to culture broth (1)” value [1, 8] was at least 95% and the “esterase activity of the mixed solution, relative to culture broth (1)” value [1, 9] was at least 95%. The “esterase activity of the mixed solution, relative to culture broth (1)” value [1, 10] was at least 95%, the viable cell number [2, 7] was 0 cfu/ml and the viable cell number [2, 8] was 0 cfu/ml. The viable cell number [2, 9] was 0 cfu/ml and the viable cell number [2, 10] was 0 cfu/ml.
For CCO [ethanol], the viable cell number [3, 11] was 0 cfu/ml, the viable cell number [3, 12] was 0 cfu/ml and the viable cell number [4, 13] was 0 cfu/ml. The viable cell number [4, 14] was 0 cfu/ml, the “esterase activity of the solution, relative to culture broth (2)” value [5, 11] was at least 95% and the “esterase activity of the solution, relative to culture broth (2)” value [5, 12] was at least 95%. For the same compound, the “esterase activity of the mixed solution, relative to culture broth (1)” value [1, 15] was at least 95%, the “esterase activity of the mixed solution, relative to culture broth (1)” value [1, 16] was at least 95% and the “esterase activity of the mixed solution, relative to culture broth (1)” value [1, 17] was at least 95%. For the same compound, the “esterase activity of the mixed solution, relative to culture broth (1)” value [1, 18] was at least 95%, the viable cell number [2, 15] was 0 cfu/ml and the viable cell number [2, 16] was 0 cfu/ml. For the same compound, the viable cell number [2, 17] was 0 cfu/ml, the viable cell number [2, 18] was 0 cfu/ml and the “esterase activity of the solution, relative to culture broth (3)” value [6, 13] was at least 95%. For the same compound, the “esterase activity of the solution, relative to culture broth (3)” value [6, 14] was at least 95%.
With CO [methanol] the “esterase activity of the mixed solution, relative to culture broth (1)” value [1, 19] was at least 95%, the “esterase activity of the mixed solution, relative to culture broth (1)” value [1, 20] was at least 95% and the “esterase activity of the mixed solution, relative to broth solution (1)” value [1, 21] was at least 95%. The “esterase activity of the mixed solution, relative to culture broth (1)” value [1, 22] was at least 92%, the viable cell number [2, 19] was 0 cfu/ml and the viable cell number [2, 20] was 0 cfu/ml. The viable cell number [2, 21] was 0 cfu/ml and the viable cell number [2, 22] was 0 cfu/ml.
